Source: patent US20150119792A1, “LIGHT DEGRADABLE DRUG DELIVERY SYSTEM FOR OCULAR THERAPY” (priority 2012, published 2015)

Assays:
[1] = tested on: Raw 264.7 cells; test: Light-triggered release of FDA from nanoparticles, cell fluorescence (imaging, plate reader); format: cell-based; conditions: UV irradiation, free FDA
Protocol: The dye selected for these studies was Fluorescein Diacetate (FDA), which is an ester of fluorescein. […] Nanoparticles containing FDA were formulated through an inverse emulsion/solvent evaporation process. […] The resulting solution was added to a larger volume of 1% solution of polyvinyl alcohol (PVA) and probe sonicated to form the emulsion. The organic solvent was then evaporated under vacuum, and PVA removed by tangential flow ultrafiltration. The resulting solution was then freeze-dried with mannitol as cryoprotectant. The resulting particles were characterized by dynamic light scattering (DLS) and scanning electron microscopy (SEM). The encapsulation efficiency was evaluated by liquid-liquid extraction of FDA from particles and fluorescence measurements. […] As a more quantitative assay, we measured the amount of fluorescence of the cells using a plate reader (same cell count in each well). […] FIG. 4 is a bar graph showing the measured fluorescence for irradiated and non-irradiated Raw 264.7 cells. The cells in irradiated wells show higher fluorescence due to triggered release of payload (dark bars) as compared to cells in non-irradiated wells (light bars). […] We found an 18-fold increase in fluorescence upon irradiation as compared to the non-irradiated control in Raw 264.7 macrophage cell line, as well as a 3-fold increase upon irradiation in retinal cell line.

[2] = Visual and microscopic inspection of the eye after intra-vitreous injection; format: in vivo, Sprague-Dawley albino rats; conditions: compared with PBS buffer (left eye)
Protocol: WO2011/038117. Initial in vivo testing on a rat model (Sprague-Dawley albino rats) was performed to determine the biocompatibility of the empty polymer particles without encapsulated cargo. This involved intra-vitreous injection of different concentrations of the light-degradable particles (“NP low” and “NP high” test categories in FIG. 2A) as well as different concentrations of nanoparticles composed of a known biocompatible material (PLGA). In each animal, the test material was injected into the right eye while a phosphate buffered solution (PBS) was injected into the left eye as a negative control. Additionally, animals were administered nanoparticle solutions that had previously been irradiated with UV light (˜350 nm) to determine any deleterious effects of the degradation byproducts (“NP low+UV” and “NP high+UV”.) Lipopolysaccharide (LPS) was injected in another group as a positive control as it is known to cause inflammation. […] FIG. 2A illustrates the intra-ocular pressure (IOP) data for these tests, with each group of bars, with the bars proceeding from left to right in the figure, corresponding to pre-operative IOP, drug (nanoparticle) day 1, PBS at day 1 after injection, drug (nanoparticle) day 4 after injection, PBS day 4, drug day 5, PBS day 5 etc. up to day 7 after injection. […] Second, the intra-ocular pressure was measured daily. […]

Compound | bleaching of FDA by irradiation [1] | visual and microscopic inspection of the eye [2]
CC(=O)Oc1ccc2c(c1)Oc1cc(OC(C)=O)ccc1C21OC(=O)c2ccccc21 [FDA, Fluorescein Diacetate] | does not cause significant bleaching | 
Lipopolysaccharide [LPS] |  | caused tearing
